From patent US20250228865A1, “COMPOUNDS FOR ENHANCING READ THROUGH OF GENES CONTAINING PREMATURE TERMINATION CODONS AND METHODS FOR MAKING AND USING THE SAME” (Sanofi US Services Inc., priority 2022, published 2025) come the findings set out here.

The test system of test [1] is recombinant human CFTR carrying the premature stop codon (PTC) mutation G542X. Briefly: CFTR-PTC mutant translation readthrough, Nanoluc tagged CFTR luminescence (G542X cell line). Format: cell-based. The settings on record: in combination with G418, G542X cell line; for CFTR G542X ACTIVITY Fold 10 μM G-418: fold over 10 μM G-418; for EC50: 16HBE cells. An outline of the steps:
(§1)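 16HBE cells stably expressing Nanoluc-tagged human CFTR with G542X or R1162X, in medium with 3 μM VX-809, treated 48 h at 37 °C with compound (10-point, 2-fold, top 50 μM final) alone or with 10 μM G418. Live-cell Nanoluc luminescence normalised to a maximally effective G418 (125-250 μM).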

Test [2] deals with recombinant human CFTR carrying the premature stop codon (PTC) mutation R1162X. As to the kind of experiment: CFTR-PTC mutant translation readthrough, Nanoluc tagged CFTR luminescence (R1162X cell line). Format: cell-based. The settings on record: for CFTR R1162X ACTIVITY Fold 10 μM G-418: fold over 10 μM G-418, in combination with G418; for EC50: in combination with G418, 16HBE cells, read-out: CFTR R1162X ACTIVITY EC50. An outline of the steps:
as §1

Take `C[C@@H](O)[C@@H]1CN(c2ncc(OCc3c(Cl)cccc3Cl)cn2)CCO1` (racemic): in test [1], the “CFTR G542X ACTIVITY Fold 10 μM G-418” value is on record as “A′ (A′ = ≥10X)” and the 50% effective concentration (EC50) (commonly the concentration at which the effect is half-maximal) lay within 1000 to 10000 nM. Moreover, in test [2], the “CFTR R1162X ACTIVITY Fold 10 μM G-418” value is “A′ (A′ = ≥10X)” and the concentration for a half-maximal effect (EC50) is more than 10000 nM.
As for `Cc1cccc(C(F)(F)F)c1COc1cnc(-n2nnc3ccccc32)nc1` [1-[5-[[2-methyl-6-(trifluoromethyl)phenyl]methoxy]pyrimidin-2-yl]benzotriazole], in test [1], the “CFTR G542X ACTIVITY Fold 10 μM G-418” value was “A′ (A′ = ≥10X)” and the half-maximal effective concentration (EC50) is less than 1000 nM. In test [2], the “CFTR R1162X ACTIVITY Fold 10 μM G-418” value is recorded as “A′ (A′ = ≥10X)” and the EC50 was less than 1000 nM.
`Cc1cccc(C(F)(F)F)c1COc1cnc(N2CCNCC2)nc1` [5-{[2-methyl-6-(trifluoromethyl)phenyl]methoxy}-2-(piperazin-1-yl)pyrimidine]: in test [1], the “CFTR G542X ACTIVITY Fold 10 μM G-418” value is given as “A′ (A′ = ≥10X)” and the concentration for a half-maximal effect (EC50) is 1000 to 10000 nM. Besides, in test [2], the “CFTR R1162X ACTIVITY Fold 10 μM G-418” value is reported as “A′ (A′ = ≥10X)” and the 50% effective concentration (EC50) was 1000 to 10000 nM.
For the compound `CN(C)CC1CN(c2ncc(OCc3c(Cl)cccc3Cl)cn2)CCO1` (stereo not shown), in test [1], the “CFTR G542X ACTIVITY Fold 10 μM G-418” value is listed as “A′ (A′ = ≥10X)” and the concentration giving a half-maximal response (EC50) was more than 10000 nM. For the same compound, in test [2], the “CFTR R1162X ACTIVITY Fold 10 μM G-418” value is “B′ (B′ = ≥5X to <10X)” and the EC50 was more than 10000 nM.
Regarding `OCc1ccn(-c2ncc(OC(F)(F)c3c(Cl)cccc3Cl)cn2)n1`, the concentration for a half-maximal effect (EC50) in test [1] and in test [2] was more than 10000 nM in each case.
Regarding `OC1(c2ccccc2)CCN(c2ncc(OCc3c(Cl)cccc3Cl)cn2)CC1` [1-[5-[(2,6-dichlorophenyl)methoxy]pyrimidin-2-yl]-4-phenyl-piperidin-4-ol], in test [1], the “CFTR G542X ACTIVITY Fold 10 μM G-418” value was “A′ (A′ = ≥10X)” and the EC50 is less than 1000 nM. Moreover, in test [2], the “CFTR R1162X ACTIVITY Fold 10 μM G-418” value is “A′ (A′ = ≥10X)” and the EC50 was 1000 to 10000 nM.
Regarding `O[C@@H]1CN(c2ncc(OCc3c(Cl)cccc3Cl)cn2)C[C@@H]1O` [(3R,4S)-1-[5-[(2,6-dichlorophenyl)methoxy]pyrimidin-2-yl]pyrrolidine-3,4-diol], in test [1], the “CFTR G542X ACTIVITY Fold 10 μM G-418” value is recorded as “A′ (A′ = ≥10X)” and the EC50 was 1000 to 10000 nM. Besides, in test [2], the “CFTR R1162X ACTIVITY Fold 10 μM G-418” value is reported as “A′ (A′ = ≥10X)” and the EC50 was more than 10000 nM.
As for `Cc1cccc(C(F)(F)F)c1COc1ccc(N2C(=O)NC3(CCCC3)C2=O)cc1`, in test [1], the “CFTR G542X ACTIVITY Fold 10 μM G-418” value is on record as “A′ (A′ = ≥10X)” and the concentration giving a half-maximal response (EC50) is less than 1000 nM. For the same compound, in test [2], the “CFTR R1162X ACTIVITY Fold 10 μM G-418” value is “B′ (B′ = ≥5X to <10X)” and the EC50 is 1000 to 10000 nM.
On to `Cc1cccc(C(F)(F)F)c1COc1cnc(-c2cc(CO)on2)nc1`, for which, in test [1], the “CFTR G542X ACTIVITY Fold 10 μM G-418” value was “A′ (A′ = ≥10X)” and the EC50 was less than 1000 nM. Moreover, in test [2], the “CFTR R1162X ACTIVITY Fold 10 μM G-418” value is given as “A′ (A′ = ≥10X)” and the concentration giving a half-maximal response (EC50) fell in the range of 1000 to 10000 nM.
Turning to `OCc1cc(-c2ncc(OCc3c(Cl)cccc3Cl)cn2)[nH]n1` [Compound 252, [5-[5-[(2,6-dichlorophenyl)methoxy]pyrimidin-2-yl]-1H-pyrazol-3-yl]methanol], in test [1], the “CFTR G542X ACTIVITY Fold 10 μM G-418” value was “A′ (A′ = ≥10X)” and the EC50 lay within 1000 to 10000 nM. In test [2], the “CFTR R1162X ACTIVITY Fold 10 μM G-418” value is reported as “B′ (B′ = ≥5X to <10X)” and the EC50 is 1000 to 10000 nM.
`O[C@H]1CCN(c2ncc(OCc3c(Cl)cccc3Cl)cn2)C1` [(3S)-1-[5-[(2,6-dichlorophenyl)methoxy]pyrimidin-2-yl]pyrrolidin-3-ol]: in test [1], the “CFTR G542X ACTIVITY Fold 10 μM G-418” value was “A′ (A′ = ≥10X)” and the concentration giving a half-maximal response (EC50) fell in the range of 1000 to 10000 nM. Besides, in test [2], the “CFTR R1162X ACTIVITY Fold 10 μM G-418” value is reported as “A′ (A′ = ≥10X)” and the half-maximal effective concentration (EC50) was 1000 to 10000 nM.
As to `O=C1CN(c2ncc(OCc3c(Cl)cccc3Cl)cn2)CCN1CCO`, in test [1], the “CFTR G542X ACTIVITY Fold 10 μM G-418” value is reported as “A′ (A′ = ≥10X)” and the EC50 is 1000 to 10000 nM. Further, in test [2], the “CFTR R1162X ACTIVITY Fold 10 μM G-418” value is listed as “A′ (A′ = ≥10X)” and the EC50 lay within 1000 to 10000 nM.
For the compound `Cc1cccc(C(F)(F)F)c1COc1cnc(N2CCOC(CO)C2)nc1` (stereo not shown), in test [1], the “CFTR G542X ACTIVITY Fold 10 μM G-418” value is on record as “A′ (A′ = ≥10X)” and the 50% effective concentration (EC50) was less than 1000 nM. In test [2], the “CFTR R1162X ACTIVITY Fold 10 μM G-418” value is given as “A′ (A′ = ≥10X)” and the EC50 was less than 1000 nM.
In the case of `OCC1(F)CCN(c2ncc(OCc3c(Cl)cccc3Cl)cn2)CC1` [[1-[5-[(2,6-dichlorophenyl)methoxy]pyrimidin-2-yl]-4-fluoro-4-piperidyl]methanol], in test [1], the “CFTR G542X ACTIVITY Fold 10 μM G-418” value is “A′ (A′ = ≥10X)” and the half-maximal effective concentration (EC50) was less than 1000 nM. For the same compound, in test [2], the “CFTR R1162X ACTIVITY Fold 10 μM G-418” value is reported as “A′ (A′ = ≥10X)” and the 50% effective concentration (EC50) is less than 1000 nM.
For `O=C(O)C1CN(c2ncc(OCc3c(Cl)cccc3C(F)(F)F)cn2)CCO1` (stereo not shown) [4-[5-[[2-chloro-6-(trifluoromethyl)phenyl]methoxy]pyrimidin-], in test [1], the “CFTR G542X ACTIVITY Fold 10 μM G-418” value was “C′ (C′ = <5X)” and the EC50 was in the range of 1000 to 10000 nM. Further, in test [2], the 50% effective concentration (EC50) was less than 1000 nM.
On to `Cc1cccc(C(F)(F)F)c1COc1cnc(N2CCN(CCOCCO)CC2)nc1`, for which, in test [1], the “CFTR G542X ACTIVITY Fold 10 μM G-418” value is listed as “A′ (A′ = ≥10X)” and the concentration for a half-maximal effect (EC50) fell in the range of 1000 to 10000 nM. Further, in test [2], the “CFTR R1162X ACTIVITY Fold 10 μM G-418” value was “A′ (A′ = ≥10X)” and the concentration giving a half-maximal response (EC50) lay in the range of 1000 to 10000 nM.
For the compound `CCCCN1CC(=O)N(c2ccc(OCc3c(C)cccc3C(F)(F)F)cc2)C1=O`, in test [1], the “CFTR G542X ACTIVITY Fold 10 μM G-418” value is recorded as “B′ (B′ = ≥5X to <10X)” and the EC50 was in the range of 1000 to 10000 nM. In addition, in test [2], the “CFTR R1162X ACTIVITY Fold 10 μM G-418” value is listed as “B′ (B′ = ≥5X to <10X)” and the concentration for a half-maximal effect (EC50) fell in the range of 1000 to 10000 nM.
For `Clc1cccc(Cl)c1COc1ccc(-n2ccnc2)cc1` [1-[4-[(2,6-dichlorophenyl)methoxy]phenyl]imidazole], in test [1], the “CFTR G542X ACTIVITY Fold 10 μM G-418” value is listed as “B′ (B′ = ≥5X to <10X)” and the EC50 lay in the range of 1000 to 10000 nM. Further, in test [2], the “CFTR R1162X ACTIVITY Fold 10 μM G-418” value is reported as “A′ (A′ = ≥10X)” and the EC50 is more than 10000 nM.
`O=C(O)C1CCCN(c2ncc(OCc3c(Cl)cccc3C(F)(F)F)cn2)C1` (stereo not shown) [1-[5-[[2-chloro-6-(trifluoromethyl)phenyl]methoxy]pyrimidin-]: in test [1], the “CFTR G542X ACTIVITY Fold 10 μM G-418” value is on record as “C′ (C′ = <5X)” and the EC50 was in the range of 1000 to 10000 nM. In test [2], the EC50 was less than 1000 nM.
On to `CNC(=O)N1CCN(c2ncc(OCc3c(Cl)cccc3Cl)cn2)CC1`, for which, in test [1], the “CFTR G542X ACTIVITY Fold 10 μM G-418” value is recorded as “A′ (A′ = ≥10X)” and the concentration for a half-maximal effect (EC50) was less than 1000 nM. In addition, in test [2], the “CFTR R1162X ACTIVITY Fold 10 μM G-418” value is given as “A′ (A′ = ≥10X)” and the EC50 was less than 1000 nM.
On to `Cc1cccc(C(F)(F)F)c1COc1cnc(-n2cnnc2)nc1` [5-[[2-methyl-6-(trifluoromethyl)phenyl]methoxy]-2-(1,2,4-triazol-4-yl)pyrimidine], for which, in test [1], the “CFTR G542X ACTIVITY Fold 10 μM G-418” value was “A′ (A′ = ≥10X)” and the 50% effective concentration (EC50) lay within 1000 to 10000 nM. In addition, in test [2], the “CFTR R1162X ACTIVITY Fold 10 μM G-418” value is given as “A′ (A′ = ≥10X)” and the EC50 lay within 1000 to 10000 nM.
Take `Cc1cccc(C(F)(F)F)c1COc1cnc(N2CCS(=O)(=O)C(CO)C2)nc1` (stereo not shown) [[4-[5-[[2-methyl-6-(trifluoromethyl)phenyl]methoxy]pyrimidin]: in test [1], the “CFTR G542X ACTIVITY Fold 10 μM G-418” value is recorded as “A′ (A′ = ≥10X)” and the EC50 is 1000 to 10000 nM. In test [2], the “CFTR R1162X ACTIVITY Fold 10 μM G-418” value is “A′ (A′ = ≥10X)” and the EC50 was 1000 to 10000 nM.
As to `CC(=O)N1CCN(c2ncc(OCc3c(C)cccc3C(F)(F)F)cn2)CC1CN` (racemic), in test [1], the “CFTR G542X ACTIVITY Fold 10 μM G-418” value is “C′ (C′ = <5X)” and the concentration giving a half-maximal response (EC50) lay in the range of 1000 to 10000 nM. In test [2], the “CFTR R1162X ACTIVITY Fold 10 μM G-418” value is “C′ (C′ = <5X)” and the EC50 was in the range of 1000 to 10000 nM.
